Test results published in patent US20230012368A1 (Hoffmann-La Roche Inc., priority 2018, published 2023).
Where a name gives a salt, the structure may show the parent alone.

Tested on: Acinetobacter baumannii ATCC 17978
Assay: Antimicrobial susceptibility testing: 90% growth inhibitory concentration (IC90) determination
Assay type: cell-based
Conditions: 90% growth inhibitory concentration; Acinetobacter baumannii ATCC17978; Iso-Sensitest broth, OD 600 nm over 16h; read-out: ATCC17978 IC90
Summary of the method: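 Growth of the Acinetobacter baumannii strain was followed by optical density at 600 nm every 20 minutes for 16h at 35±2° C. Inoculum was ~5×10^(5) CFU/ml in Iso-Sensitest medium, with twofold compound dilutions (e.g. 50 to 0.097 μM final). The 90% inhibitory concentration was derived in log-phase growth.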

Compound	IC90
CCc1cc(Nc2nccn3c(-c4ccc(Oc5ccc(C(=O)NCCCN)cn5)c(F)c4F)cnc23)ccc1C(=O)NC [Example 507, N-(3-aminopropyl)-6-[4-[8-[3-ethyl-4-(methylcarbamoyl)anilino]imidazo[1,2-a]pyrazin-3-yl]-2,3-difluoro-phenoxy]pyridine-3-carboxamide; formic acid]	500 nM
COc1ccc(-c2cnc3c(Nc4ccc(C(=O)N(C)CC(=O)N5CCNCC5)c(C)c4)nccn23)cc1F [Example 5, hydrochloride]	650 nM
CCc1cc(Nc2nccn3c(-c4ccc(OC)c(F)c4F)cnc23)ccc1C(=O)NCCNC(=O)[C@@H](N)CCCNC(=N)NCCCC(=O)O [Example 157, (S)-7-amino-1-(4-((3-(2,3-difluoro-4-methoxyphenyl)imidazo[1,2-a]pyrazin-8-yl)amino)-2-ethylphenyl)-12-imino-1,6-dioxo-2,5,11,13-tetraazaheptadecan-17-oic acid trihydrochloride]	320 nM

Same assay, conditions: Acinetobacter baumannii, ATCC17978, 16 h, 90% growth inhibitory concentration; Acinetobacter baumannii ATCC17978; Iso-Sensitest broth, OD 600 nm over 16h; read-out: ATCC17978 IC90

Compound	IC90
COc1ccc(-c2cnc3c(Nc4ccc(C(=O)N(C)CC(=O)N5CCC(CN(C)C)C5)c(C)c4)nccn23)cc1F (stereo not drawn) [Example 9, N-[2-[3-[(dimethylamino)methyl]pyrrolidin-1-yl]-2-oxo-ethyl]-4-[[3-(3-fluoro-4-methoxy-phenyl)imidazo[1,2-a]pyrazin-8-yl]amino]-N,2-dimethyl-benzamide]	840 nM
Cc1cc(Nc2nccn3c(-c4ccc(OC(F)F)cc4)cnc23)ccc1C(=O)NCC1CCN(C(=N)N)CC1 [Example 24, N-((1-carbamimidoyl-piperidin-4-yl)methyl)-4-((3-(4-(difluoromethoxy)phenyl)imidazo[1,2-a]pyrazin-8-yl)amino)-2-methylbenzamide]	340 nM
Cc1cc(Nc2nccn3c(-c4ccc(Cl)c(F)c4F)cnc23)ccc1C(=O)N(C)CCN [Example 241, N-(2-aminoethyl)-4-[[3-(4-chloro-2,3-difluorophenyl)imidazo[1,2-a]pyrazin-8-yl]amino]-N,2-dimethylbenzamide;hydrochlo-ride]	1900 nM
COc1ccc(-c2cnc3c(Nc4ccc(C(=O)N(C)CCN5CCNCC5)c(C)c4)nccn23)c(F)c1F [Example 61, 4-((3-(2,3-difluoro-4-methoxyphenyl)imidazo [1,2-a]pyrazin-8-yl)amino)-N,2-dimethyl-N-(2-(piperazin-1-yl)ethyl)benzamide]	190 nM
Cc1cc(Nc2nccn3c(-c4ccc(OC(F)F)cc4)cnc23)ccc1C(=O)NCC1CNCCO1 (stereo not drawn) [Example 242, 4-[[3-[4-(difluoromethoxy)phenyl]im-idazo[1,2-a]pyrazin-8-yl]amino]-2-methyl-N-(morpholin-2-ylmethyl)benzamide; hydrochlo-ride]	2000 nM
COC(=O)[C@@H](N)CCCCNC(=O)c1ccc(Nc2nccn3c(-c4ccc(OC(F)F)cc4)cnc23)cc1C [Example 226, methyl (2S)-2-amino-6-[[4-[[3-[4-(difluoromethoxy)phenyl]im-idazo[1,2-a]pyrazin-8-yl]amino]-2-methylbenzoyl]amino]hexa-noate;hydrochloride]	1100 nM
Cc1cc(Nc2nccn3c(-c4ccc(OC(F)F)cc4)cnc23)ccc1C(=O)N(C)CCC1CCN(CCC(=O)O)CC1 [Example 150, 3-(4-(2-(4-((3-(4-(difluoromethoxy)phenyl)imidazo[1,2-a]pyrazin-8-yl)amino)-N,2-dimethylbenzamido)ethyl)piperidin-1-yl)propanoic acid]	650 nM
CCc1cc(Nc2nccn3c(-c4ccc(OC)c(F)c4F)cnc23)ccc1C(=O)NCC1CCN(CC(=O)NCC2CCNC2)CC1 (stereo not drawn) [Example 551, 4-((3-(2,3-difluoro-4-methoxyphenyl)imidazo[1,2-a]pyrazin-8-yl)amino)-2-ethyl-N-((1-(2-oxo-2-((pyrrolidin-3-ylmethyl)amino)ethyl)piperi-din-4-yl)methyl)benzamide bis(2,2,2-trifluoroacetate)]	77 nM
COc1ccc(-c2cnc3c(Nc4ccc(C(=O)N(C)CC5CCOC5)c(C)c4)nccn23)cc1F (stereo not drawn) [Example 71, 4-((3-(3-fluoro-4-methoxyphenyl)imidazo [1,2-a]pyrazin-8-yl)amino)-N,2-dimethyl-N-((tetrahydrofuran-3-yl)methyl)benzamide]	1100 nM
CCc1cc(Nc2nccn3c(-c4ccc(Oc5cc(OC)ncn5)c(F)c4F)cnc23)ccc1C(=O)N[C@@H](C)CN [Example 463, (S)-N-(1-aminopropan-2-yl)-4-((3-(2,3-difluoro-4-((6-methoxypyrimidin-4-yl)oxy)phenyl)imidazo[1,2-a]pyrazin-8-yl)amino)-2-ethylbenzamide]	840 nM
CCc1cc(Nc2nccn3c(-c4ccc(OC)c(F)c4F)cnc23)ccc1C(=O)NCC1COC1 [Example 291, 4-[[3-(2,3-difluoro-4-methoxyphenyl)imidazo[1,2-a]pyrazin-8-yl]amino]-2-ethyl-N-(oxetan-3-ylmethyl)benzamide]	90 nM
COc1ccc(-c2cnc3c(Nc4ccc(C(=O)N(C)Cc5ccncc5)c(C)c4)nccn23)cc1F [Example 73, 4-((3-(3-fluoro-4-methoxyphenyl)imidazo [1,2-a]pyrazin-8-yl)amino)-N,2-dimethyl-N-(pyridin-4-ylmethyl)benzamide]	140 nM
COc1ccc(-c2cnc3c(Nc4ccc(C(=O)N[C@H](C)CN)c(C)c4)nccn23)c(F)c1F [Example 506, #N!-[(2#R!)-1-aminopropan-2-yl]-4-[[3-(2,3-difluoro-4-methoxyphenyl)imidazo[1,2-a]pyrazin-8-yl]amino]-2-methylbenzamide;dihydrochlo-ride]	130 nM
CCc1cc(Nc2nccn3c(-c4ccc(OC)c(F)c4F)cnc23)ccc1C(=O)NCCNC(=O)[C@@H](N)CCN [Example 399, N-[2-[[(2S)-2,4-diaminobutanoyl]amino]ethyl]-4-[[3-(2,3-difluoro-4-methoxy-phenyl)imidazo[1,2-a]pyrazin-8-yl]amino]-2-ethyl-benzamide; formic acid]	380 nM
CN(CCC1CCNCC1)C(=O)c1ccc(Nc2nccn3c(-c4ccc(OCC#N)c(F)c4F)cnc23)cc1Cl [Example 78, 2-chloro-4-[[3-[4-(cyanomethoxy)-2,3-difluoro-phenyl]imidazo[1,2-a]pyrazin-8-yl]amino]-N-methyl-N-[2-(4-piperidyl)ethyl] benzamide; 2,2,2-trifluoroacetic acid]	130 nM
CCc1cc(Nc2nccn3c(-c4ccc(OC)c(F)c4F)cnc23)ccc1C(=O)NCCNC(=O)[C@@H](N)CCCNC(=N)N [Example 121, N-[2-[[(2S)-2-amino-5-guanidino-pentanoyl]amino]ethyl]-4-[[3-(2,3-difluoro-4-methoxy-phenyl)imidazo[1,2-a]pyrazin-8-yl]amino]-2-ethyl-benzamide trifluoroacetate]	280 nM
CCc1cc(Nc2nccn3c(-c4ccc(Cl)c(F)c4F)cnc23)ccc1C(=O)NCCNC(=O)[C@@H](N)CCCNC(=N)N [Example 341, N-[2-[[(2S)-2-amino-5-carbamimidamidopentanoyl]amino]ethyl]-4-[[3-(4-chloro-2,3-difluorophenyl)imidazo[1,2-a]pyrazin-8-yl]amino]-2-ethylbenzamide]	650 nM
COc1ccc(-c2cnc3c(Nc4ccc(C(=O)NC[C@@H](O)[C@@H](O)[C@H](O)[C@H](O)CO)c(C)c4)nccn23)cc1F [Example 288, 4-[[3-(3-fluoro-4-methoxyphenyl)imidazo[1,2-a]pyrazin-8-yl]amino]-2-methyl-N-[(2R,3R,4R,5R)-2,3,4,5,6-pentahydroxyhexyl]benzamide]	3000 nM
